From patent US11980667B2, “Short TAT oligomers for drug delivery” (The Trustees of Columbia University in the City of New York, priority 2017, dated 2024)

How the values were obtained:
9L glioma tumors [1] = details: IA-TCH, 1 mL of 0.5 mg/mL, 15 minutes
Procedure: In a separate experiment, 14 days post-implantation of 9L glioma tumors, eight rats were anesthetized and prepared for IA-TCH. Blood flow reduction for TCH was achieved by bolus IV injection of adenosine and esmolol that were flushed with cold saline. […] Animals were sacrificed 15 minutes after TAT injection. Brain tissue was harvested. Gross sections were imaged with multi-spectral imaging (MSI) system using a photon counting cooled fluorescence camera. A 490 nm light was used for excitation while 525 nm filter was used for imaging the emitted light.

9L glioma tumor = assay: In vivo uptake of TAT dimer versus monomer by IA-TCH (MSI and confocal imaging); set-up: species or system rat; details: dimer 0.25 mg, monomer 0.125 mg, five rats each
Procedure: An additional experiment was performed to assess the in vivo uptake of fluorescein-labeled TAT dimer by IA-TCH. About 14 days after 9L glioma tumor implantation, rats were anesthetized and prepared for TAT dimer delivery experiments. TAT dimer was conjugated with fluorescein such that its concentrations in post mortem samples could be determined immediately by multispectral imaging and confocal imaging. TAT dimer (0.25 mg) and monomer (0.125 mg) were tested using IA-TCH delivery both containing equal amounts of fluorescein were evaluated. […] Animals were sacrificed 15 minutes after TAT injection. Brain tissue was harvested.

9L glioma [2] = assay: Quantitative tumor TAT-FITC uptake, electron multiplying charge-coupled device imaging; type: in vivo, rat
From the text: In addition to the standard fluorescence imaging described above, we assess tumor uptake of TAT-FITC using a higher resolution, quantitative tool utilizing an electron-multiplying charge coupled device. To accomplish this we used two warm white light LEDs to evenly illuminate the tissue samples through a narrow (10 nm) band pass filter with 470 nm central transmission (Thor Labs, New Jersey). An Evolve 520 high sensitivity electron multiplying charge-coupled device (Photometeric Inc. Tucson, AZ) was utilized while using a 520 nm narrow band pass filter. Each sample was normalized to the background and to the injected drug concentrations. Four 2 mm sections were interrogated for each specimen on either side of the plane of tumor implantation. The data was corrected for ambient light, tissue independent background fluorescence, and contralateral hemisphere tissue fluorescence.

9L glioma tumors [3] = details: four arrest cycles IA-TCH; single arrest from historical controls
Procedure: Multiple Arrest Study. 9L glioma tumors were implanted into five rats. 14 days post-implantation, the rats were anesthetized and prepared for the injections. Blood flow reduction was achieved by bolus IV injection of adenosine and esmolol that were flushed with cold saline. Four arrest cycles were used to deliver fluorescein-conjugated TAT monomer via intra-arterial injection with a 5 minute recovery period between each arrest. Animals were sacrificed 15 minutes after injection. Brain tissues were harvested an imaged using a multi-spectral imaging system using a photon counted cooled fluorescence camera. A 470 nm light was used for excitation while a 530 nm filter was used for imaging the emitted light.

9L glioma [4] = assay: IA-TCH versus IV delivery: uptake by confocal microscopy imaging of frozen sections; type: in vivo, rat; details: n = 6
From the text: Comparison of […] and IV TAT delivery. Fisher 344 rats weighing about 200 g were utilized. During initial surgery under ketamine-xylazine isoflurane anesthesia 5×10^5 9 L cells were implanted 3 mm below the skull and 2-3 mm posterior and lateral to the bregma through a 1 mm craniotomy. […] The animals were assigned separately to IV and IA-TCH groups. On the day of drug delivery, animals were sedated with isoflurane and injected with ketamine/xylazine. The tail vein was cannulated for intravenous access. Under aseptic precautions, a tracheostomy and carotid cannulation were performed. Anesthesia was maintained by mechanical ventilation with isoflurane (1.8-2.2%). Thereafter animals were turned prone on a stereotactic frame. The skull was exposed and the region of tumor implantation was shaved to transparency. A laser Doppler probe was implanted on the skull with the aid of a plastic holder to assess cerebral/tumor blood flow. Rectal temperature, pulse pleth (volume), pulse oxygen saturation, EKG, expired and inspired gas composition, brain and skin blood flow with lase Doppler were continuously monitored.
Transient cerebral hypoperfusion and fluorescein-labeled TAT monomer injection. IA injections were made during TCH by the following method. Reduction of blood flow was achieved by bolus IV injections of adenosine (2 mg) and esmolol (2 mg), and cold saline (1.5 mL at 4° C.). Typically such an intervention decreases cerebral blood flow to about 20% of the baseline. The heart rate response varies from sinus bradycardia to a sinus pause. However, physiological parameters rapidly recover within 3-5 minutes. […] For each animal, a test IA injection was done prior to the onset of hypotension to ensure delivery of the desired injection volume and the injection sequence was resumed after bolus IV injections of hypotensive drugs.
Frozen sections (10 μm thick) were imaged under a Nikon confocal microscope with 470 nm excitation. Due to the large size of the tissue sample, small sections of images were obtained and then assembled together. An adjacent section was stained with hematoxylin and eosin to confirm the size and location of the tumor. The total fluorescence in the tumor region, in the non-tumor ipsi-lateral hemisphere, and in the corresponding region contra-lateral to the tumor was quantified. The contra-lateral hemisphere was used for background correction.

[5] = Delivery of cell-penetrating peptides to the brain of healthy rats, confocal microscopy; type: in vivo, rat
From the text: Animal preparation, IA-TCH injection, and brain tumor implantation. Animal protocols were approved by the Columbia University Institutional Animal Care and Use Committee (IACUC). Studies were primarily conducted on Sprague-Dawley rats weighing 250 to 300 grams. In the case of electron multiplying charge-coupled device imaging studies, Fisher 344 rats implanted with 9L brain tumors were utilized. The surgical preparation including anesthesia, carotid and femoral cannulation, cerebral blood flow and vital sign monitoring, as well as in vivo fluorescence imaging have been previously described in detail.
IA injections of cell-penetrating peptides (CPPs) were made during TCH as 65 μL pulses totaling 1 ml in volume. TCH was produced by a bolus injection of adenosine, esmolol, and cold saline. Animals were allowed to hemodynamically recover from TCH and euthanized 10 minutes after injection. Uptake of CPPs was assessed with a fluorescence camera and with confocal fluorescence microscopy.
Cell-penetrating peptides. Two experimental cell-penetrating peptides were tested: 1. octaarginine, also called (Arg)8 or R-8 (SEQ ID NO: 13) and 2. trans-activator of transcription or TAT (Lifetien Inc.). The 14 amino acid peptide sequence for TAT is […]COOH (SEQ ID NO: 11). Both cell-penetrating peptides (CPPs) were labeled with fluorescein so that their distribution could be identified by multispectral imaging and with fluorescence microscopy of the frozen brain sections.
Fluorescence and electron multiplying charge-coupled device imaging.

With N=C(N)NCCC[C@H](NC(=O)CNC(=O)c1ccc2c(c1)C(=O)OC21c2ccc(O)cc2Oc2cc(O)ccc21)C(=O)N[C@@H](CCCCN)C(=O)N[C@@H](CCCCN)C(=O)N[C@@H](CCCNC(=N)N)C(=O)N[C@@H](CCCNC(=N)N)C(=O)N[C@@H](CCC(N)=O)C(=O)N[C@@H](CCCNC(=N)N)C(=O)N[C@@H](CCCNC(=N)N)C(=O)N[C@@H](CCCNC(=N)N)C(=O)N1CCC[C@H]1C(=O)N1CCC[C@H]1C(=O)N[C@@H](CCC(N)=O)C(=O)N[C@@H](CCC(N)=O)C(=O)O [fluorescein-labeled TAT monomer, 5-FAM-GRKKRRQRRR PPQQ-COOH] the “Concentration in the tumor versus the opposite side” value (9L glioma tumors [1]) was 13 ×, the “Uptake in the tumor compared to adjacent regions” value (9L glioma tumors [1]) was 5 × and the Tumor selective delivery (9L glioma tumor) was “able to achieve tumor selective drug delivery”. The “Tumor TAT deposition compared to the corresponding contralateral region” value (9L glioma [2]; IA-TCH, N=8) was 11.7 fold, the “Fluorescence in the tumor compared to the ipsilateral non-tumor regions” value (9L glioma [2]; six animals, FIG. 19E) was 7.4 × and the “Fluorescence in the tumor compared to the tumor site on the contralateral hemisphere” value (9L glioma [2]; six animals, FIG. 19E) was 10.5 ×. The “Deposition, multiple arrest compared to single-arrest” value (9L glioma tumors [3]) was “increases the amount of TAT deposition but also increases non-specific deposition”, the Contralateral fluorescence (9L glioma [4]; IA-TCH) was 161 ± 94 AU and the Ipsi-lateral fluorescence (9L glioma [4]; IA-TCH) was 353 ± 76 AU. For the same compound, the Ipsi/contralateral ratio (9L glioma [4]; IA-TCH) was 2.7 ± 1.4, the Tumor fluorescence (9L glioma [4]; IA-TCH) was 1758 ± 474 AU and the Tumor/contralateral ratio (9L glioma [4]; IA-TCH) was 13.8 ± 7.6. The Tumor/ipsi-lateral ratio (9L glioma [4]; IA-TCH) was 4.9 ± 0.7, the Contralateral fluorescence (9L glioma [4]; IV) was 205 ± 67 AU and the Ipsi-lateral fluorescence (9L glioma [4]; IV) was 216 ± 65 AU. It also gave an Ipsi/contralateral ratio (9L glioma [4]; IV) of 1.1 ± 0.5, a Tumor fluorescence (9L glioma [4]; IV) of 528 ± 246 AU and a Tumor/contralateral ratio (9L glioma [4]; IV) of 3.0 ± 1.4. The Tumor/ipsi-lateral ratio (9L glioma [4]; IV) was 2.4 ± 1.1, the Deposition by hemisphere ([5]; IA-TCH carotid injection, confocal microscopy) was “detectable deposition preferentially to the hemisphere ipsilateral to carotid injection” and the “Parenchymal deposition versus dose” value ([5]; IA-TCH, dose range 0.25-1 mg) was “dose dependent increase”. The “Distribution in the brain (semi-quantitative)” value ([5]; IA-TCH, confocal microscopy) was “more diffuse deposition within the white matter” and the “Distribution in the brain” value ([5]; IV delivery of 0.5 mg, FIG. 17 F) was “diffuse uptake of TAT in and beyond the blood vessels was seen preferentially in the white matter”.
